Results as given in ChEMBL document CHEMBL1148675, “Protein microarrays to study carbohydrate-recognition events” (Bioorg Med Chem Lett, 2006).
Activity calls are given as the source filed them. The rule behind the calls is not given here.

Columns and labels:
Sambucus nigra = experiment: Binding affinity to Sambucus nigra A lectin by microarray at 0.5 uM
Homo sapiens [1] = species: Homo sapiens; experiment: Binding affinity to RNase A by microarray at 0.5 uM
[2] = target: T1, Ovalbumin (Gallus gallus) (UniProt P01012); experiment: Binding affinity to ovalbumin by microarray at 0.5 uM
T1 sequence (whole entry): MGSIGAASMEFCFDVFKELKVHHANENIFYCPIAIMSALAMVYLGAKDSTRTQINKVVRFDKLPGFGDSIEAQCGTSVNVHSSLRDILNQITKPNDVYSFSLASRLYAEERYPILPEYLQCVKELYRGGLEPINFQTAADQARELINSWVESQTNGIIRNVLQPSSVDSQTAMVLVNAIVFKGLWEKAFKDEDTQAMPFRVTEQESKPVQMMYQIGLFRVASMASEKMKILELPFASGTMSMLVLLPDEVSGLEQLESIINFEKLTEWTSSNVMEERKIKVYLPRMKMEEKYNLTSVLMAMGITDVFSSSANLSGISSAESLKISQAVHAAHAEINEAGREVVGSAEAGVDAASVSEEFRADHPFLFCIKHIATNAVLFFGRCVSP

[3] = target: Streptavidin (Streptomyces avidinii) (UniProt P22629); experiment: Binding affinity to streptavidin by microarray
Trypsin (Homo sapiens) = Trypsin (Homo sapiens) (UniProt P07477+P07478+P35030); experiment: Binding affinity to trypsin by microarray at 0.5 uM; type: protein assay
[4] = Inhibition of trivalent GlcNAc binding to wheat germ agglutinin without irradiation by microarray; set-up: species or system Triticum aestivum
Homo sapiens [5] = species: Homo sapiens; experiment: Binding affinity to GST by microarray at 0.5 uM
Homo sapiens [6] = species: Homo sapiens; experiment: Binding affinity to collagenase by microarray at 0.5 uM
[7] = Inhibition of trivalent GlcNAc binding to wheat germ agglutinin with irradiation by microarray; set-up: species or system Triticum aestivum
Aleuria aurantia = experiment: Binding affinity to Aleuria Aurantia lectin by microarray at 0.5 uM
Homo sapiens [8] = species: Homo sapiens; experiment: Binding affinity to myokinase by microarray at 0.5 uM
Homo sapiens [9] = species: Homo sapiens; experiment: Binding affinity to amylase by microarray at 0.5 uM
[10] = target: Antithrombin-III (Homo sapiens) (UniProt P01008); experiment: Binding affinity to antithrombin by microarray at 0.5 uM
Insulin (Homo sapiens) = Insulin (Homo sapiens) (UniProt P01308); experiment: Binding affinity to insulin by microarray at 0.5 uM
Canavalia = experiment: Binding affinity to Concanavalin A by microarray at 0.5 uM
Triticum aestivum = experiment: Binding affinity to wheat germ agglutinin by microarray at 0.5 uM
Homo sapiens [11] = species: Homo sapiens; experiment: Binding affinity to alkaline phosphatase by microarray at 0.5 uM
Homo sapiens [12] = species: Homo sapiens; experiment: Binding affinity to hyaluronidase by microarray at 0.5 uM
[13] = target: Prothrombin (Homo sapiens) (UniProt P00734); experiment: Binding affinity to thrombin by microarray at 0.5 uM
Homo sapiens [14] = species: Homo sapiens; experiment: Binding affinity to pepsin by microarray at 0.5 uM
Ricinus communis = experiment: Binding affinity to Ricinus communis agglutinin 120 by microarray at 0.5 uM

Chain of Insulin (Homo sapiens) (P01308 whole entry): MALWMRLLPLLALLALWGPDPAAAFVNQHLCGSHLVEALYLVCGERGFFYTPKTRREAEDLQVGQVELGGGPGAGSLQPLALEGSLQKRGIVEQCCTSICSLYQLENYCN
Chain of Antithrombin-III (Homo sapiens) (P01008 whole entry): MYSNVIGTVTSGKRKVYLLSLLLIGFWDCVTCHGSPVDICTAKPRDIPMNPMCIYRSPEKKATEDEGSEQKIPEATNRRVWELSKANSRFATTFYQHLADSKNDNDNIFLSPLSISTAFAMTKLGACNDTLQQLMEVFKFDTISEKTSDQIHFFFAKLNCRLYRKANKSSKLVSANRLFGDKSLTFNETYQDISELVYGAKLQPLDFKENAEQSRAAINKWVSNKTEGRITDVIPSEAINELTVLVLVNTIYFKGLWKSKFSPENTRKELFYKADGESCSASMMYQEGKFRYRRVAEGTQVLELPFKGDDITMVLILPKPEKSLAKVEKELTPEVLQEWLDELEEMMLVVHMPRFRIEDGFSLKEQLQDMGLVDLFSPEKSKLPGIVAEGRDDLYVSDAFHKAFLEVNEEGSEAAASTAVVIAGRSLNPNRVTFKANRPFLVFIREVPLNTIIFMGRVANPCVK
Chain of Streptavidin (Streptomyces avidinii) (P22629 whole entry): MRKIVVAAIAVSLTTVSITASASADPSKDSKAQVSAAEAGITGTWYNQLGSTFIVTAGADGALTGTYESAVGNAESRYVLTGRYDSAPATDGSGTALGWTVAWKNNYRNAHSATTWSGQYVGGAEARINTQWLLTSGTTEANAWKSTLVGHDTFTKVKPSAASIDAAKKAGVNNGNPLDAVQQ

CC(=O)N[C@H]1[C@H](OCCNC(=O)CCC(=O)NCCCC[C@H](NC(=O)CCC(=O)NCCO[C@@H]2O[C@H](CO)[C@@H](O)[C@H](O)[C@H]2NC(C)=O)C(=O)N[C@@H](CCCCNC(=O)[C@H](COCc2ccc(C(=O)c3ccccc3)cc2)NC(=O)CCC(=O)NCCO[C@@H]2O[C@H](CO)[C@@H](O)[C@H](O)[C@H]2NC(C)=O)C(=O)NCCCOCCOCCOCCCNC(=O)CCC(=O)NCCOCCOCCNC(=O)CCCCN2CCC(C)(C)/C2=C\C=C\C2=[N+](C)c3ccccc3C2(C)C)O[C@H](CO)[C@@H](O)[C@@H]1O
Activity (Sambucus nigra): inactive
Activity (Homo sapiens [1]): inactive
Activity [2]: inactive
Activity [3]: inactive
Activity (Trypsin (Homo sapiens)): inactive
IC50 [4]: 7.9 mM
Activity (Homo sapiens [5]): inactive
Activity (Homo sapiens [6]): inactive
IC50 [7]: 17 mM
Activity (Aleuria aurantia): inactive
Activity (Homo sapiens [8]): inactive
Activity (Homo sapiens [9]): inactive
Activity [10]: inactive
Activity (Insulin (Homo sapiens)): inactive
Activity (Canavalia): inactive
Activity (Triticum aestivum): Active
Activity (Homo sapiens [11]): inactive
Activity (Homo sapiens [12]): inactive
Activity [13]: inactive
Activity (Homo sapiens [14]): inactive

C[C@H]1O[C@H](OCCNC(=O)CCC(=O)NCCCC[C@H](NC(=O)CCC(=O)NCCO[C@H]2O[C@H](C)[C@H](O)[C@H](O)[C@H]2O)C(=O)N[C@@H](CCCCNC(=O)[C@H](COCc2ccc(C(=O)c3ccccc3)cc2)NC(=O)CCC(=O)NCCO[C@H]2O[C@H](C)[C@H](O)[C@H](O)[C@H]2O)C(=O)NCCCOCCOCCOCCCNC(=O)CCC(=O)NCCOCCOCCNC(=O)CCCCN2CCC(C)(C)/C2=C\C=C\C2=[N+](C)c3ccccc3C2(C)C)[C@H](O)[C@@H](O)[C@H]1O
Activity (Sambucus nigra): inactive
Activity (Homo sapiens [1]): inactive
Activity [2]: inactive
Activity [3]: inactive
Activity (Trypsin (Homo sapiens)): inactive
Activity (Homo sapiens [5]): inactive
Activity (Homo sapiens [6]): inactive
Activity (Aleuria aurantia): Active
Activity (Homo sapiens [8]): inactive
Activity (Homo sapiens [9]): inactive
Activity [10]: inactive
Activity (Insulin (Homo sapiens)): inactive
Activity (Canavalia): inactive
Activity (Triticum aestivum): inactive
Activity (Homo sapiens [11]): inactive
Activity (Homo sapiens [12]): inactive
Activity [13]: inactive
Activity (Homo sapiens [14]): inactive

CC(=O)N[C@H]1[C@@H](OCCNC(=O)CCC(=O)NCCCC[C@H](NC(=O)CCC(=O)NCCO[C@H]2O[C@H](CO)[C@@H](O[C@@H]3O[C@H](CO)[C@H](O)[C@H](O)[C@H]3O)[C@H](O)[C@H]2NC(C)=O)C(=O)N[C@@H](CCCCNC(=O)[C@H](COCc2ccc(C(=O)c3ccccc3)cc2)NC(=O)CCC(=O)NCCO[C@H]2O[C@H](CO)[C@@H](O[C@@H]3O[C@H](CO)[C@H](O)[C@H](O)[C@H]3O)[C@H](O)[C@H]2NC(C)=O)C(=O)NCCCOCCOCCOCCCNC(=O)CCC(=O)NCCOCCOCCNC(=O)CCCCN2CCC(C)(C)/C2=C\C=C\C2=[N+](C)c3ccccc3C2(C)C)O[C@H](CO)[C@@H](O[C@@H]2O[C@H](CO)[C@H](O)[C@H](O)[C@H]2O)[C@@H]1O
Activity (Sambucus nigra): inactive
Activity (Homo sapiens [1]): inactive
Activity [2]: inactive
Activity [3]: inactive
Activity (Trypsin (Homo sapiens)): inactive
Activity (Homo sapiens [5]): inactive
Activity (Homo sapiens [6]): inactive
Activity (Aleuria aurantia): inactive
Activity (Homo sapiens [8]): inactive
Activity (Homo sapiens [9]): inactive
Activity [10]: inactive
Activity (Insulin (Homo sapiens)): inactive
Activity (Canavalia): inactive
Activity (Triticum aestivum): Active
Activity (Ricinus communis): Active
Activity (Homo sapiens [11]): inactive
Activity (Homo sapiens [12]): inactive
Activity [13]: inactive
Activity (Homo sapiens [14]): inactive
